Consider five molecules from patent publication US8940313B2, “Tyrosine-based prodrugs of antiviral agents” (priority 2010, dated 2015).

Data set [1] in a line: Chemical stability: hydrolysis in 200 mM phosphate buffer, 37° C., LC-MS. To be noted: per diastereoisomer, st = stable.
The nature of data set [2]: Enzymatic stability: hydrolysis in rat intestinal homogenate, pH 6.5, 37° C., LC-MS. To be noted: per diastereoisomer, st = stable.
Data set [3] in a line: Oral bioavailability / transport study in mice, plasma LC-MS. To be noted: oral AUC / intravenous AUC, dose-adjusted, total HPMPA-containing species in plasma.
Data set [4] relates to KB cells. Description: cells. The note with it: read-out: IC50 KB. Type of data set: cell-based.
Data set [5] concerns cowpox virus. Nature of the data set: microbe, parasite or virus in culture. In kind it is cell-based. To be noted: read-out: IC50 Cow Pox.
For data set [6], the system named is human cytomegalovirus (HCMV). Nature of the data set: microbe, parasite or virus in culture. Type of data set: cell-based.
Data set [7] has as its system herpes simplex 1 (HSV-1). Description: microbe, parasite or virus in culture. Type of data set: cell-based.
Data set [8] relates to vaccinia virus. Description: microbe, parasite or virus in culture. The note with it: read-out: IC50 Vaccinia. In kind it is cell-based.
In data set [9] the test system is HFF cells. Description: cells. Type of data set: cell-based, human. The note with it: Homo sapiens, HFF, read-out: IC50 HFF.
Data set [10] has as its system poxviruses (vaccinia and cowpox viruses). In kind it is cell-based.
Where [11] appears, read: pH 7.4, T1/2 Buffer pH 7.4, 200 mM phosphate buffer pH 7.4, 37° C.

Read-outs that look alike come from different tables or passages of the source.

By half-life is commonly meant how long it takes for the measured level to halve. Low values mean rapid decline, high ones slow decline. `COC(=O)[C@H](N)Cc1ccc(OP2(=O)CO[C@@H](Cn3ccc(N)nc3=O)CO2)cc1` (single isomer, unassigned) [2b (S,S)] displayed a half-life in [1] (setting [11]) of 21 min. In addition, in data set [2], the “T1/2 Int. Hom.” value is reported as 72 min.
For `COC(=O)[C@@H](N)Cc1ccc(OP2(=O)CO[C@@H](Cn3ccc(N)nc3=O)CO2)cc1` (single isomer, unassigned) [2a (S,S)] the same measures were 19 min and under 30 min.
One may read the IC50 as the concentration needed to halve the response being measured. As for `Nc1ncnc2c1ncn2C[C@@H](CO)OCP(=O)(O)O` [Compound 1, (S)-9-(3hydroxy-2-phosphonyl-methoxypropyl)adenine, reference compound], the total oral bioavailability in data set [3] is 5%. Besides, the IC50 in data set [4] was over 100000 nM; in data set [5], 4000 nM; in data set [6] (read-out: IC50 HCMV), 410 nM; in data set [7] (read-out: IC50 HSV-1), 35000 nM; in data set [8] it was 2000 nM.
Consider `CC(C)CNC(=O)[C@@H](N)Cc1ccc(OP(=O)(O)CO[C@H](CO)Cn2cnc3c(N)ncnc32)cc1` [Compound 8, 4-[(2S)-2-amino-2-[(2-methylpropyl)carbamoyl]ethyl]phenoxy({[(2S)-1-(6-amino-9H-purin-9-yl)-3-hydroxypropan-2-yl]oxy}methyl)phosphinic acid], for which the IC50 in data set [4] (Homo sapiens, KB, 48 h) is over 100000 nM; in data set [9] it was over 100000 nM; in data set [5] (Cowpox virus, HFF) it was 3000 nM; in [6] (Human betaherpesvirus 5, read-out: IC50 HCMV), 290 nM; in data set [7] (Human alphaherpesvirus 1, read-out: IC50 HSV-1), 45000 nM; in data set [8] (Orthopoxvirus vaccinia, HFF), 500 nM. In data set [10], the “activity against all these viruses” value is reported as “active”. The “T1/2 Int. Hom.” value in [2] is on record as “st”.
In the case of `COC(=O)[C@H](Cc1ccc(OP2(=O)CO[C@@H](Cn3cnc4c(N)ncnc43)CO2)cc1)NC(=O)[C@@H](N)C(C)C` (single isomer, unassigned) [1f (S,S)], the half-life in data set [1] (pH 6.5, T1/2 Buffer pH 6.5, 200 mM phosphate buffer pH 6.5, 37° C.) amounted to 67 min. Besides, the “T1/2 Int. Hom.” value in data set [2] is recorded as under 28 min.
